#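 Method: 48-hour compound exposure of cells in 96-well plates, five concentrations, linear interpolation of endpoints. GI50 marks 50% less growth. TGI: concentration producing complete growth inhibition.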
# Legend:
# Experiment in all cases: growth of human tumour cells (NCI), 48 h
# MALME-3M melanoma = test system: MALME-3M melanoma
# EKVX NSCLC = test system: EKVX NSCLC
# HOP-62 NSCLC = test system: HOP-62 NSCLC
# 786-0 renal = test system: 786-0 renal
# KM12 colon = test system: KM12 colon
# HL-60(TB) leukemia = test system: HL-60(TB) leukemia
# SR leukemia = test system: SR leukemia
# SNB-19 CNS = test system: SNB-19 CNS
# SW-620 colon = test system: SW-620 colon
# UACC-257 melanoma = test system: UACC-257 melanoma
Compound,TGI (MALME-3M melanoma),TGI (EKVX NSCLC),TGI (HOP-62 NSCLC),TGI (786-0 renal),TGI (KM12 colon),TGI (HL-60(TB) leukemia),TGI (SR leukemia),TGI (SNB-19 CNS),TGI (SW-620 colon),TGI (UACC-257 melanoma),GI50 (MALME-3M melanoma),GI50 (EKVX NSCLC),GI50 (HOP-62 NSCLC),GI50 (SW-620 colon),GI50 (786-0 renal),GI50 (KM12 colon),GI50 (SR leukemia),GI50 (SNB-19 CNS),GI50 (UACC-257 melanoma),GI50 (HL-60(TB) leukemia)
CC(O[Si](C)(C)C)C1C=CC(C)n2c(=O)n(-c3ccccc3)c(=O)n21 (stereo not given),> 100 µM,> 100 µM,> 100 µM,> 100 µM,> 100 µM,> 100 µM,> 100 µM,> 100 µM,–,–,–,–,–,–,–,–,–,–,–,–
CCN(CC(COc1ccc2c(c1)[n+]([O-])nc(N)[n+]2[O-])OC(C)=O)C(C)=O (stereo not given),–,> 100 µM,> 100 µM,> 100 µM,> 100 µM,> 100 µM,> 100 µM,> 100 µM,> 100 µM,> 100 µM,–,–,–,–,–,–,–,–,–,–
O=C1C(Cl)=C(Nc2cccc(O)c2)C(=O)N1c1cccc(Cl)c1Cl,53.9 µM,> 100 µM,62.9 µM,63.2 µM,86.8 µM,–,10.3 µM,82.9 µM,34.5 µM,–,11.7 µM,49.6 µM,15.9 µM,15.2 µM,18.2 µM,24.6 µM,0.57 µM,19.1 µM,–,–
C=C1C(=O)OC2/C=C(\C)C3OC3/C=C(/C(=O)OC)C(OC(C)=O)C(OC(=O)C(C)(O)C(C)OC(C)=O)C12 (stereo not given),7.88 µM,42.9 µM,37.5 µM,8.27 µM,6.36 µM,–,–,29.1 µM,2.25 µM,2.34 µM,–,–,–,–,–,–,–,–,–,–
C=C(CN1CCN(c2cccc(F)c2)CC1)c1ccc(C(=O)Nc2ccccc2N)cc1,68 µM,> 100 µM,17.5 µM,13 µM,50.1 µM,2.26 µM,–,> 100 µM,> 100 µM,47.5 µM,1.83 µM,6.68 µM,0.83 µM,2.53 µM,1.84 µM,1.38 µM,–,1.95 µM,8.19 µM,0.357 µM
CSc1nc2c(c(=O)[nH]1)C(c1ccc(Cl)cc1)C1=C(N2)/C(=C/c2ccc(Cl)cc2)CNC1 (stereo not given),19.2 µM,–,5.11 µM,4.46 µM,4.47 µM,6.26 µM,5.87 µM,8.29 µM,10 µM,9.4 µM,4.41 µM,–,2.38 µM,2.86 µM,2.02 µM,2.06 µM,1.9 µM,2.31 µM,2.63 µM,2.44 µM
Cc1cc2c(cc1C)[n+](=O)c(C(=O)/C=C/c1ccccc1Cl)c(C)n2[O-],94.5 µM,> 100 µM,58.9 µM,30.3 µM,96.2 µM,99.6 µM,–,> 100 µM,> 100 µM,57.5 µM,–,–,–,–,–,–,–,–,–,–
O=C(CCl)Nc1ccc2c(c1)C(=O)c1ccc(NC(=O)CCl)cc1C2=O,0.888 µM,–,–,0.537 µM,2.42 µM,3.08 µM,1.98 µM,2.98 µM,0.493 µM,4.87 µM,0.219 µM,–,–,0.198 µM,0.193 µM,1.06 µM,0.0959 µM,0.547 µM,1.8 µM,0.454 µM
O=S(=O)(NCCCNc1cc(-c2cn(-c3ccccc3)nc2-c2cccc(O)c2)ccn1)c1ccc(Cl)cc1,–,29.6 µM,3.25 µM,4.19 µM,4.93 µM,5.61 µM,5.16 µM,8.37 µM,3.54 µM,–,–,2.05 µM,1.52 µM,1.62 µM,1.56 µM,1.95 µM,1.58 µM,2.68 µM,–,2.09 µM
Nc1c(C(=O)Nc2ccccc2)sc2nc3c(cc12)CCCC3,95.2 µM,–,> 67.6 µM,55 µM,> 100 µM,20.8 µM,19.6 µM,> 100 µM,> 100 µM,–,0.608 µM,–,0.781 µM,0.403 µM,0.706 µM,0.485 µM,0.36 µM,18.1 µM,–,0.299 µM
CC1CCC23COC(=O)C2C(O)CCC3C1(C)CC(O)c1ccoc1 (stereo not given),> 100 µM,> 100 µM,> 100 µM,> 100 µM,> 100 µM,–,–,> 100 µM,> 100 µM,> 100 µM,–,–,–,–,–,–,–,–,–,–
C[n+]1ccc(-c2c3nc(c(-c4ccc5c(ccc[n+]5C)c4)c4ccc([nH]4)c(-c4cc[n+](C)cc4)c4nc(c(-c5ccc6c(ccc[n+]6C)c5)c5ccc2[nH]5)C=C4)C=C3)cc1,> 50 µM,> 50 µM,> 50 µM,> 50 µM,> 50 µM,17.2 µM,–,> 50 µM,> 50 µM,48.5 µM,> 50 µM,> 50 µM,13.3 µM,> 50 µM,> 50 µM,23.1 µM,–,24.2 µM,12.9 µM,9.19 µM
CC1=CC2C(C(C)C)CC1C1C(=O)OC(=O)C21 (stereo not given),> 100 µM,> 100 µM,> 100 µM,> 100 µM,–,77.8 µM,–,> 100 µM,> 100 µM,> 100 µM,–,–,–,–,–,–,–,–,–,–
O=c1/c(=C/c2ccc3c(c2)OCO3)sc2nnc(-c3ccco3)n12,> 100 µM,> 100 µM,> 100 µM,> 100 µM,> 100 µM,> 100 µM,–,> 100 µM,> 100 µM,> 100 µM,–,–,–,–,–,–,–,–,–,–
CC/C=C\C/C=C\C[C@H]1C/C=C2/C(=O)C=C[C@H]2C/C=C\CCC(=O)O1,8.8 µM,> 14.3 µM,10.6 µM,7.45 µM,5.7 µM,12.2 µM,–,> 14.3 µM,5.52 µM,–,2.85 µM,3.81 µM,3.94 µM,2.11 µM,3.13 µM,2.52 µM,–,5.04 µM,–,3.55 µM
COc1ccc(Cn2c(Br)c3c(c2-c2cc(OC)c(OC)c(OC)c2)CCc2sc(NC(C)=O)nc2-3)cc1,83.4 µM,–,> 100 µM,> 100 µM,> 100 µM,8.06 µM,> 100 µM,> 100 µM,> 100 µM,> 100 µM,12.7 µM,–,5.52 µM,3.63 µM,4.2 µM,4.03 µM,2.44 µM,> 100 µM,98.5 µM,3.27 µM
COC(=O)NN1C(C)=C(C(=O)OC)C2(CCOC2=O)C1(C)O (stereo not given),> 100 µM,> 100 µM,> 100 µM,> 100 µM,> 100 µM,> 100 µM,–,> 100 µM,> 100 µM,> 100 µM,–,–,–,–,–,–,–,–,–,–

# — PubChem BioAssay (NCI)
